Laboratory results taken from ChEMBL document CHEMBL5154828 (J Med Chem, 2022).
Active and inactive are the calls of the source. The rule behind the calls is not given here.

Legend:
T47D = assay: Antiproliferative activity against human T47D cells assessed as inhibition of cell growth measured after 7 days by cell titre glo luminescence assay; format: functional, cell-based; details: time 7.0 day
Estrogen receptor beta = Estrogen receptor beta (Homo sapiens, UniProt Q92731); assay: Antagonist activity at ERbeta expressed in HEK293/Gal4 cells incubated for 24 hrs in presence of di-arylpropionitrile by luciferase reporter gene assay
[1] = target: T1, Estrogen receptor (Homo sapiens) (UniProt P03372); assay: Induction of ERalpha degradation in human CAMA-1 cells incubated 24 hrs by Western blot analysis; format: cell-based; details: dose 0.1-1000 nM, DDE = dose-dependent effect
T1 sequence (whole entry): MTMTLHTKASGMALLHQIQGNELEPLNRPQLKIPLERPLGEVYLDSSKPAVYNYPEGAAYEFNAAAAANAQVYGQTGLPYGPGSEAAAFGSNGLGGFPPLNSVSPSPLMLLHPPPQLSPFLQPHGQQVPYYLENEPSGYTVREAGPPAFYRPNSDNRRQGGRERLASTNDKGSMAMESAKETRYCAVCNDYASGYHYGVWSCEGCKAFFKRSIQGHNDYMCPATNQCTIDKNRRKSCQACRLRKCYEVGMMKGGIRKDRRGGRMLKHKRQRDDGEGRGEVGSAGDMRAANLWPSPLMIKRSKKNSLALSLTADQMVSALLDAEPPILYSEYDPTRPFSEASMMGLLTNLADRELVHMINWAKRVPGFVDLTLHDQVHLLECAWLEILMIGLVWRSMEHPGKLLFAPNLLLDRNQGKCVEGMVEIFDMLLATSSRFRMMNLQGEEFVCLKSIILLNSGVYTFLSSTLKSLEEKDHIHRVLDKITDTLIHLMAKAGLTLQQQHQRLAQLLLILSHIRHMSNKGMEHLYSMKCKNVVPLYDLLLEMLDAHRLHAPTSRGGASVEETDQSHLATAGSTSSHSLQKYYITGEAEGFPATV

[2] = Elimination half life in ICR mouse at 5 mg/kg, po measured up to 24 hrs by LC/MS/MS analysis; format: ADME, organism-based; details: in vivo, read-out: beta t1/2 (converted)
Estrogen receptor [3] = target: T2, Estrogen receptor (Homo sapiens, UniProt P03372); assay: Induction of ERalpha degradation in human MCF7 cells incubated for 24 hrs by Western blot analysis; format: cell-based
T2 sequence (P03372 whole entry): T1 sequence (whole entry)

BT-474 = assay: Antiproliferative activity against human BT-474 cells assessed as inhibition of cell growth measured after 7 days by cell titre glo luminescence assay; format: functional, cell-based; details: time 7.0 day
[4] = target: T1, Estrogen receptor (Homo sapiens); assay: Induction of ERalpha degradation in human MDA-MB-361 cells incubated 24 hrs by Western blot analysis; format: cell-based; details: dose 0.1-1000 nM, DDE = dose-dependent effect
MCF7 [5] = assay: Antiproliferative activity against human MCF7 cells assessed as inhibition of cell growth measured after 6 days by cell titre glo luminescence assay; details: MCF7, 144 h
MDA-MB-361 = assay: Antiproliferative activity against human MDA-MB-361 cells assessed as inhibition of cell growth measured after 10 days by cell titre glo luminescence assay; format: functional, cell-based; details: time 10.0 day
[6] = Drug concentration in rat plasma at 20 mg/kg, po measured after 2 hrs; format: ADME, organism-based
[7] = target: T1, Estrogen receptor (Homo sapiens); assay: Induction of ERalpha degradation in human MCF7 cells at 5 uM incubated 24 hrs by Western blot analysis; format: cell-based
[8] = test system: Estrogen receptor (Homo sapiens), P03372 [Y537S]; assay: Induction of ERalpha Y537S mutant degradation in human MCF7 cells at 10 to 100 nM incubated for 4 hrs by Western blot analysis; format: cell-based; details: dose 10-100 nM
[9] = Ratio of drug concentration in rat uterus to plasma at 20 mg/kg, po measured after 2 hrs; details: female
[10] = Elimination half life in Sprague-Dawley rat at 10 mg/kg, po measured up to 24 hrs by LC/MS/MS analysis; format: ADME, organism-based; details: in vivo, read-out: beta t1/2 (converted)
[11] = Cmax in ICR mouse at 5 mg/kg, po measured up to 24 hrs by LC/MS/MS analysis; format: ADME, organism-based; design: dose 5 mg/kg, time < 24 hrs, route po; details: in vivo
[12] = AUC (0 to t) in Sprague-Dawley rat at 10 mg/kg, po measured up to 24 hrs by LC/MS/MS analysis; format: ADME, organism-based; design: time < 24 hrs, dose 10 mg/kg, route po; details: in vivo
[13] = Drug concentration in rat breast at 20 mg/kg, po measured after 2 hrs; format: ADME, organism-based; details: read-out: Ct
[14] = Antiproliferative activity against human MCF-7/TAMR-1 cells assessed as inhibition of cell growth measured after 8 days by cell titre glo luminescence assay; details: MCF-7/TAMR-1, 192 h
MCF7 [15] = assay: Antitumor activity against tamoxifen-sensitive human MCF7 cells xenografted in athymic mouse assessed as reduction in tumor growth at 15 mg/kg, po qd measured after 21 days; details: 504 h, read-out: TGI
Estrogen receptor [16] = target: Estrogen receptor (Homo sapiens, UniProt P03372, D538G); assay: Antagonist activity at ERalpha D538G mutant degradation in human SK-BR-3 cells incubated for 24 hrs in presence of beta-estradiol by luciferase gene assay; format: cell-based
[17] = Cmax in Sprague-Dawley rat at 10 mg/kg, po measured up to 24 hrs by LC/MS/MS analysis; format: ADME, organism-based; design: time < 24 hrs, dose 10 mg/kg, route po; details: in vivo
[18] = Ratio of drug concentration in rat liver to plasma at 20 mg/kg, po measured after 2 hrs
CAMA-1 = assay: Antiproliferative activity against human CAMA-1 cells assessed as inhibition of cell growth measured after 8 days by cell titre glo luminescence assay; format: functional, cell-based; details: time 8.0 day
[19] = target: T1, Estrogen receptor (Homo sapiens); assay: Induction of ERalpha degradation in human T47D cells incubated 24 hrs by Western blot analysis; format: cell-based; details: dose 0.1-1000 nM, DDE = dose-dependent effect
[20] = MRT in ICR mouse at 2 mg/kg, iv measured up to 24 hrs by LC/MS/MS analysis; format: ADME, organism-based; details: in vivo
[21] = Volume of distribution at steady state in ICR mouse at 2 mg/kg, iv measured up to 24 hrs by LC/MS/MS analysis; format: ADME, organism-based; details: in vivo, read-out: Vdss
[22] = AUC (0 to t) in ICR mouse at 2 mg/kg, iv measured up to 24 hrs by LC/MS/MS analysis; format: ADME, organism-based; design: dose 2 mg/kg, time < 24 hrs, route iv; details: in vivo
[23] = Drug concentration in rat brain at 20 mg/kg, po measured after 2 hrs; format: ADME, organism-based; details: read-out: Ct
Estrogen receptor [24] = target: Estrogen receptor (Homo sapiens, UniProt P03372, Y537S); assay: Antagonist activity at ERalpha Y537S mutant degradation in human SK-BR-3 cells incubated for 24 hrs in presence of beta-estradiol by luciferase gene assay; format: cell-based
[25] = Tmax in Sprague-Dawley rat at 10 mg/kg, po measured up to 24 hrs by LC/MS/MS analysis; format: ADME, organism-based; details: in vivo
[26] = target: T1, Estrogen receptor (Homo sapiens); assay: Induction of ERalpha degradation in human MCF7 cells at 1 nM by Western blot analysis; format: cell-based; details: time 0.5-24 hrs, TDE = time-dependent effect
[27] = Oral bioavailability in ICR mouse at 5 mg/kg measured up to 24 hrs by LC/MS/MS analysis; format: ADME, organism-based; details: in vivo
[28] = target: T1, Estrogen receptor (Homo sapiens); assay: Induction of ERalpha degradation in human BT-474 cells incubated 24 hrs by Western blot analysis; format: cell-based; details: dose 0.1-1000 nM, DDE = dose-dependent effect
[29] = Drug concentration in rat liver at 20 mg/kg, po measured after 2 hrs; format: ADME, organism-based; details: read-out: Ct
[30] = Clearance in ICR mouse at 2 mg/kg, iv measured up to 24 hrs by LC/MS/MS analysis; format: ADME, organism-based; details: in vivo

Estrogen receptor (Homo sapiens, UniProt P03372, Y537S), sequence (P03372 whole entry Y537S): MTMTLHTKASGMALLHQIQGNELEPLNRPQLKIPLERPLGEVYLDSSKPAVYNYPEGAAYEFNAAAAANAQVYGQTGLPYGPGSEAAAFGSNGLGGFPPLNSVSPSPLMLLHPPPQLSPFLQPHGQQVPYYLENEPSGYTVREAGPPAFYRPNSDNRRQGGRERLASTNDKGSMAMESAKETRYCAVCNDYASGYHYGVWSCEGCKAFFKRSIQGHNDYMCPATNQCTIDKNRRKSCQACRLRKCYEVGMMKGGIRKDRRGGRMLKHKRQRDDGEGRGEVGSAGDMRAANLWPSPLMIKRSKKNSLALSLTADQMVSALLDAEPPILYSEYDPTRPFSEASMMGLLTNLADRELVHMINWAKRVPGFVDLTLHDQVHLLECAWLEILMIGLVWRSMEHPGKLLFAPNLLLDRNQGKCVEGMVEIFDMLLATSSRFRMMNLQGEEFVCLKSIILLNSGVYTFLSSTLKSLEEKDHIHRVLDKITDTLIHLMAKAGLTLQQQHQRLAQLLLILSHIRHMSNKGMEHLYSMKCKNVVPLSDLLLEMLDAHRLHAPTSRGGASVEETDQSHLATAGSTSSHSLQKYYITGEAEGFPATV
Estrogen receptor (Homo sapiens), P03372 [Y537S], sequence (P03372 whole entry Y537S): as above
Estrogen receptor beta, sequence (Q92731 whole entry, the tested form may be a part): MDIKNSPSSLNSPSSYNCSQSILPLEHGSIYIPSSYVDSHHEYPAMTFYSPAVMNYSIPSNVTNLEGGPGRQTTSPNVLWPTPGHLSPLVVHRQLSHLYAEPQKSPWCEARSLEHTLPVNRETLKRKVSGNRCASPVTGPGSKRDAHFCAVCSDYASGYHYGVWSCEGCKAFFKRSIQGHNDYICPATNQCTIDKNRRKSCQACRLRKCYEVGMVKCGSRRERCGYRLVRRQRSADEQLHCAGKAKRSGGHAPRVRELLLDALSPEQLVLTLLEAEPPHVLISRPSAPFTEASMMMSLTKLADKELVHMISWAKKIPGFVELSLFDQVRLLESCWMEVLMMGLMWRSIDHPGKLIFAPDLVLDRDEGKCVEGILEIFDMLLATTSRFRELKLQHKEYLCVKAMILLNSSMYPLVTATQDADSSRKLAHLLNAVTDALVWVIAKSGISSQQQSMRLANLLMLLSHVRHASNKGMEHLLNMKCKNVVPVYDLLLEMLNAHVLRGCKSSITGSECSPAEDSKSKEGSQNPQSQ
Estrogen receptor (Homo sapiens, UniProt P03372, D538G), sequence (P03372 whole entry D538G): as the sequence (P03372 whole entry Y537S) above, with S537Y, D538G counted along it

With `CC(F)(F)c1cc(Cl)ccc1-c1sc2c(ccc3[nH]ncc32)c1Oc1ccc(OC2CN(CCCF)C2)cc1` the Activity (T47D) was “Active”, the IC50 (Estrogen receptor beta) was 2.3 nM and the Activity [1] was “Dde”. For the same molecule, the half-life [2] was 5.7 h, the EC50 (Estrogen receptor [3]) was 1.1 nM and the Activity (BT-474) was “Active”. For the same molecule, the Activity [4] was “Dde”, the IC50 (MCF7 [5]) was 1 nM and the Activity (MDA-MB-361) was “Active”. For the same molecule, the concentration at 2 h [6] was 609 ng/mL, the Activity [7] was “Active” and the Activity [8] was “Active”. The Kp at 2 h [9] was 3.6, the half-life [10] was 4.6 h and the Cmax [11] was 768 ng/mL. The AUC(0-t) at 24 h [12] was 3180 ng·h/mL, the concentration at 2 h [13] was 2410 ng/mL and the IC50 [14] was 3.2 nM. It also gave an inhibition in vivo at 15 mg/kg (MCF7 [15]) of -17%, an IC50 (Estrogen receptor [16]) of 16.1 nM and a Cmax [17] of 340 ng/mL. For the same molecule, the Kp at 2 h [18] was 34.9, the Activity (CAMA-1) was “Active” and the Activity [19] was “Dde”. It also gave an MRT [20] of 6.4 h, a Vd [21] of 2.7 L/kg and an AUC(0-t) at 24 h [22] of 4630 ng·h/mL. The concentration at 2 h [23] was 442 ng/mL, the IC50 (Estrogen receptor [24]) was 10.3 nM and the Tmax [25] was 3.3 h. For the same molecule, the Activity [26] was “Tde”, the bioavailability [27] was 67% and the Activity [28] was “Dde”. It also gave a concentration at 2 h [29] of 212000 ng/mL and a clearance [30] of 7 mL/min/kg.
